{
  "source": "a melting point compilation (Tetko et al.; mined from patent text by program, amines drawn as free bases though some values may be those of a salt)",
  "data": [
    {"units": {"melting point": "°C"}, "values": [
      {"smiles": "CC1CC(=O)NN=C1c1ccc(N2CCC(C(=O)O)CC2)c([N+](=O)[O-])c1", "note": "(stereo not given)", "melting point": 214},
      {"smiles": "CSC1=C(c2ccc(O)cc2)C(=O)c2cc(O)cc(O)c21", "melting point": "120 to 123"},
      {"smiles": "CC(C)(C)CC(C)(C)c1ccc(O)c(-n2nc3ccc(C(F)(F)F)cc3n2)c1", "melting point": "80 to 81"},
      {"smiles": "O=S(=O)(Nc1cccc(CCOCc2ccc(-c3ccc(Cl)cc3)cc2)c1)C(F)(F)F", "melting point": "69 to 70"},
      {"smiles": "CC(CCCl)C(=O)Nc1cc(C(C)(C)C)ns1", "note": "(stereo not given)", "melting point": "144 to 146"},
      {"smiles": "FC(F)(F)CC1(CC2(CC(F)(F)F)N=c3cc(Cl)c(Cl)cc3=N2)N=c2cc(Cl)c(Cl)cc2=N1", "melting point": "235 to 237"},
      {"smiles": "O=C1OCc2c(Cl)cccc21", "melting point": "80 to 82"},
      {"smiles": "COC(=O)C(=O)NCC(C#Cc1ccccc1)c1ccc(OC)c(OC2CCCC2)c1", "note": "(racemic)", "melting point": "120 to 124"},
      {"smiles": "CS(=O)(=O)c1cc([N+](=O)[O-])c(C(N)=O)cc1N1CC1", "melting point": "222 to 224"},
      {"smiles": "CC(C)(F)CC(=O)c1cc(C(C)(C)C)c(O)c(C(C)(C)C)c1", "melting point": 94},
      {"smiles": "COC1(c2cccc(OCc3ccc(-n4ccnc4)cc3)c2)CCOCC1", "melting point": "129 to 130"},
      {"smiles": "COc1cc(C(=O)O)ccc1Cc1c(Cl)n(C)c2ccc(CC3CCN(C)C3=O)cc12", "note": "(stereo not given)", "melting point": "204 to 205"},
      {"smiles": "C=CCN(C)CCCCCCOc1ccc2c(-c3ccc(Br)cc3)cc(C)nc2c1", "melting point": "88 to 93"},
      {"smiles": "O=C(Nc1ccc(C(=O)N2Cc3cccn3Cc3ccccc32)cc1)c1cc(Cl)ccc1Cl", "melting point": "218 to 220"},
      {"smiles": "COC(=O)c1nsc2nccn12", "melting point": "164 to 165"},
      {"smiles": "CNC(=O)Oc1ccc2oc3ccccc3c2c1", "melting point": "155 to 156"},
      {"smiles": "NC(=O)c1nnn(Cc2ccccc2Br)c1N", "melting point": "211 to 213"},
      {"smiles": "COc1ccc2oc(Cc3cccnc3)c(CC#N)c2c1", "melting point": 123},
      {"smiles": "CCCn1c(C)nn(-c2ccc(N3CCN(c4ccc(OC)cc4)CC3)cc2)c1=O", "melting point": 202},
      {"smiles": "CCCCCC(C)C(C)c1cc(O)c2c3c(c(=O)oc2c1)SCCC3", "note": "(stereo not given)", "melting point": "131 to 133"},
      {"smiles": "CCCC(=O)OCC(=O)C1(OC(C)=O)CCC2C3CC(C)C4=CC(=O)CCC4(C)C3C(O)CC21C", "note": "(stereo not given)", "melting point": "98 to 120"},
      {"smiles": "COc1cc(C(=O)Nc2cc(-c3c(-c4ccc(F)c(C)c4)nc4cccnn34)ccn2)ccc1F", "melting point": "217 to 218"},
      {"smiles": "CC1(C)OC(C=Cc2ccc(Cl)c(Cl)c2)=CC1=O", "melting point": "100 to 102"},
      {"smiles": "Cc1nn(C)c(-c2ccccc2)c1NC1=NCCN1", "melting point": "232 to 234"},
      {"smiles": "Cc1oc(-c2ccccc2)nc1CCc1nc(COc2ccccc2CC(=O)O)co1", "melting point": "109 to 110"},
      {"smiles": "Cn1cc(-c2cccc(N3Cc4cc(C(C)(C)C)ccc4C3=O)c2CO)cc(Nc2ccc(N3CCNCC3=O)cn2)c1=O", "melting point": "218 to 220"},
      {"smiles": "CC(C)(C)OC(=O)C1(O/N=C(\\C(=O)O)c2csc(NC(c3ccccc3)(c3ccccc3)c3ccccc3)n2)CC1", "melting point": 157},
      {"smiles": "COC(=O)c1ccc(Cl)cc1OCC#N", "melting point": "73 to 76"},
      {"smiles": "Cc1nc2c(OCc3c(Cl)cc(C(O)c4ccccc4)cc3Cl)cccn2c1Br", "note": "(stereo not given)", "melting point": "178 to 179"},
      {"smiles": "CN(C)C(=O)C1CCC2C(=O)N(c3ccccc3)C(=O)N12", "note": "(stereo not given)", "melting point": "172 to 174"},
      {"smiles": "CCc1nc2c(cnn2CC)c(NC2CCOCC2)c1CNC(=O)c1cc(C)cc(C(=O)NCc2ccc(Cl)c(Br)c2)c1", "melting point": "212 to 214"},
      {"smiles": "CC(=O)OCC1CCCN(C(=O)c2ccc(NC(=O)c3ccccc3C)cc2)c2ccccc21", "note": "(stereo not given)", "melting point": "155 to 156"},
      {"smiles": "CN(C)c1ccc(NC(=O)N(Cc2ccccc2)C[C@@H]2CCCC[C@H]2CN(Cc2ccccc2)C(=O)Nc2ccc(N(C)C)cc2)cc1", "note": "(relative stereo)", "melting point": "109 to 113"},
      {"smiles": "C#CCCCC(=O)Nc1nc2nn(C)cc2c2nc(-c3ccco3)nn12", "melting point": "210 to 216"},
      {"smiles": "Cn1cc(Cl)cnc1=O", "melting point": 210},
      {"smiles": "O=C/C=C/c1cccc(Cl)c1Cl", "melting point": "94 to 95"},
      {"smiles": "CCOC(=O)CCc1cn(-c2ccc(C(F)(F)F)cc2)nc1OCC", "melting point": "47 to 48"},
      {"smiles": "CCOC(=O)n1c(=O)[nH]c2cc(OC)ccc21", "melting point": "180 to 183"},
      {"smiles": "O=C(O)c1cc(=O)cc(-c2ccccc2Cl)o1", "melting point": "241 to 246"},
      {"smiles": "COC(=O)C1N(c2c(C)cccc2C)C(=N)C(C)N1c1c(C)cccc1C", "note": "(stereo not given)", "melting point": "141 to 142"},
      {"smiles": "Cc1ccc(N2C(=O)C(O)=C(C(=O)c3ccc(N4CCOCC4)cc3)C2c2ccc(OC(F)(F)F)cc2)nn1", "note": "(stereo not given)", "melting point": 234},
      {"smiles": "O=C(O)CCc1cc(-c2ccc(Cl)cc2)n(-c2nc3c(Cl)cccc3s2)n1", "melting point": "232 to 234"},
      {"smiles": "COCC(=O)Nc1nc(NC(=O)COC)nc(NC2CC2)n1", "melting point": "175 to 180"},
      {"smiles": "CCCCOC(=O)NCCc1nc(-c2ccc(-c3ccccc3)cc2)c(C)[nH]1", "melting point": "143 to 144"},
      {"smiles": "CCOC(=O)C[C@H](O)COC(c1ccccc1)(c1ccccc1)c1ccccc1", "melting point": "98.8 to 101"},
      {"smiles": "CCOC(=O)c1c(-c2ccc(F)cc2)c(-c2ccc(F)cc2)c(C=O)n1C(C)C", "melting point": "92 to 94"},
      {"smiles": "CC(=CC(=O)c1cccs1)N1CCCC1", "melting point": "154 to 156"},
      {"smiles": "CSC1(Cl)C(=O)Nc2ccc(C(F)(F)F)cc21", "note": "(stereo not given)", "melting point": "191 to 193"},
      {"smiles": "CCNC(=O)NC1=C(C(=O)OC)CCNC1=O", "melting point": 103},
      {"smiles": "CNCCOc1ccc(C(=C(c2ccccc2)C(F)(F)F)c2ccc(OCOC)cc2)cc1", "melting point": "87 to 90"},
      {"smiles": "CCn1c2ccccc2c2cc(/C=C(\\C#N)c3cccnc3)ccc21", "melting point": "131 to 133"},
      {"smiles": "Cc1oc(-c2ccccc2)nc1CCOc1ccc(CC(C)(C)C(=O)NS(C)(=O)=O)cc1", "melting point": "112 to 113"},
      {"smiles": "CC(=O)Nc1ccc(Nc2c(NCc3ccccc3)cc(C(=O)O)cc2S(=O)(=O)Nc2ccccc2NC(C)=O)cc1", "melting point": 268},
      {"smiles": "CN(c1ccccc1)c1nc(Cl)nc2sccc12", "melting point": "167 to 168"},
      {"smiles": "NC(=O)CC[C@H](Nc1ccc(O)cc1)C(=O)O", "melting point": "211 to 212"},
      {"smiles": "CC(C)(O)c1cc(Br)ccc1N", "melting point": "62 to 63"},
      {"smiles": "C#Cc1cccc(-c2cccnc2F)c1", "melting point": "45 to 47"},
      {"smiles": "Cc1cccc(Nc2ncnc3cnc(NC4CCN(C#N)CC4)nc23)c1", "melting point": "178 to 181"},
      {"smiles": "COc1ccc(CN2CCC(C(=O)NO)(S(=O)(=O)c3ccc(OC)cc3)CC2)cc1", "melting point": 175},
      {"smiles": "CNC(Cc1ccc(Cl)nc1)=C(N)C(=O)C(F)(F)F", "melting point": 114},
      {"smiles": "O=C(c1cccs1)c1cnn2c(-c3cccc(NCc4cccc(Cl)c4)c3)ccnc12", "melting point": "133 to 135"},
      {"smiles": "COC(=O)NNc1ccccc1OCCSC", "melting point": "92 to 94"},
      {"smiles": "CC(C)(CO)Cc1ccc2cc(CC(C)(C)CO)ccc2c1", "melting point": "162 to 165"},
      {"smiles": "O=C(Nc1ccc(CN2CCCCC2)cc1)C1=Cc2cc(C3CCCCC3)ccc2CC1", "melting point": "180 to 181"},
      {"smiles": "CC1(C#N)CCCc2nc(-c3ccccc3)ccc21", "note": "(stereo not given)", "melting point": "114 to 116"},
      {"smiles": "CCOC(CCN(C(=O)c1cccs1)c1nc(-c2cc(-c3ccccc3)no2)cs1)OCC", "melting point": "100 to 101"},
      {"smiles": "CCOc1ccc2nc(C)cc(=O)n2c1C", "melting point": "112 to 114"},
      {"smiles": "CCCc1c(OCCCCc2ccc3c(Cl)c(OC)c(OC)c(Cl)c3c2)ccc(C(=O)O)c1O", "melting point": "181 to 182"},
      {"smiles": "Cc1ncsc1CCNC(=O)c1cnc(N2CCN(C(=O)c3c(-c4ccccc4)n(C)c4cccnc34)CC2)cn1", "melting point": 225},
      {"smiles": "COc1ccc(-c2sc(Nc3cnccn3)nc2C)cc1S(N)(=O)=O", "melting point": 378}
    ]}
  ]
}
